In paper PMC8275407 (BioMed Research International, 2021):

Biological target: recombinant soluble dimeric mouse H-2D^b:Ig (DimerX) protein (Mus musculus, UniProt P01899)
Assay: biochemical
Type: binding

recombinant soluble dimeric mouse H-2D^b:Ig (DimerX) protein, sequence (P01899 25-298 limits assumed): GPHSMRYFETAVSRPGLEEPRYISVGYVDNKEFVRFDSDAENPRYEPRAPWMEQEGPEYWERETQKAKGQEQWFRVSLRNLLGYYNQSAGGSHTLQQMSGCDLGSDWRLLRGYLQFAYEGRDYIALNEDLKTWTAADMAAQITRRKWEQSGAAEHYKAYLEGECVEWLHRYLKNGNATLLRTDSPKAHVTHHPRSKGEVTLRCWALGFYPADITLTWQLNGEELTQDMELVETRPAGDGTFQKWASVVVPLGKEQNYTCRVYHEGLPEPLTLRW

## CC[C@H](C)[C@H](NC(=O)CNC(=O)[C@@H](NC(=O)[C@H](Cc1ccccc1)NC(=O)[C@H](CCCCN)NC(=O)[C@H](CO)NC(=O)[C@H](CC(N)=O)NC(=O)[C@H](C)NC(=O)[C@H](CCCCN)NC(=O)[C@@H](NC(=O)[C@H](Cc1ccc(O)cc1)NC(=O)[C@@H](N)CCC(N)=O)[C@@H](C)CC)[C@@H](C)CC)C(=O)N[C@H](C(=O)N[C@@H](CCC(=O)O)C(=O)O)[C@@H](C)O [TT830-843]
  Kd: 344 ± 60 nM
pH 7.2, read-out: association rate constant ka
  kon: 900000 M⁻¹ s⁻¹
pH 7.2, read-out: dissociation rate constant kd
  koff: 0.31 ± 0.02 s⁻¹
